Patent publication EP0531119B1, “N,N',N'-trisubstituted -5-bis-aminomethylene-1,3-dioxane-4,6-dione inhibitors of acyl-CoA: cholesterol-acyl transferase” (AMERICAN HOME PRODUCTS CORPORATION, priority 1991, dated 1993)

What was measured:
[1] = test system: ¹⁴C-Cholesterol Absorption; test: In vivo 14C-cholesterol absorption in normal rats; details: oral gavage, blood samples six hours later
Procedure: Representative compounds were further tested in vivo to establish the percent inhibition of cholesterol absorption. In this study, normal rats were dosed (oral gavage) with ¹⁴C-cholesterol plus the test compound. Blood samples taken exactly six hours later were analyzed and the percent inhibition of cholesterol absorption was calculated as shown in: Table II

[2] = test system: acyl-coenzyme A: cholesterol acyltransferase; test: Inhibition of intracellular cholesterol esterification (ACAT), test procedure of Ross et al.; format: cell-based; details: for % Inhib, (Concentration - µM): 25 µM; for IC50: read-out: IC₅₀
Source text: The ability of the compounds of this invention to inhibit acyl-coenzyme A: cholesterol acyltransferase was established by initially showing that they inhibited intracellular cholesterol esterification by subjecting them to the standard experimental test procedure of Ross et al., J. Biol. Chem. 259 815 (1984). The results of these studies are presented in: Table I

For `CCCCCCN(Cc1ccnc2ccccc12)C(Nc1ccc(OC)cc1OC)=C1C(=O)OC(C)(C)OC1=O` [Example 2, 5-[[(2,4-Dimethoxyphenyl)amino][hexyl(4-quinolinylmethyl)amino]methylene]-2,2-dimethyl-1,3-dioxane-4,6-dione], the “% Inhibition of Absorption” value ([1]; dose 3 mg/kg) was 2%.
For `CCCCCCN(Cc1ccc2ccccc2n1)C(Nc1cc(C(C)(C)C)c(O)c(C(C)(C)C)c1)=C1C(=O)OC(C)(C)OC1=O` [Example 3, 5-[[[3,5-Bis(1,1-dimethylethyl)-4-hydroxyphenyl]amino][hexyl(2-quinolinylmethyl)amino]methylene]-2,2-dimethyl-1,3-dioxane-4,6-dione], the “% Inhibition of Absorption” value ([1]; dose 3 mg/kg) was 11%, the “% Inhib, (Concentration - µM)” value [2] was 55 (25) % and the IC50 [2] was 2.33 µM.
`CCCCCCN(Cc1ccc2ccccc2n1)C(Nc1ccc(OC)cc1OC)=C1C(=O)OC(C)(C)OC1=O` [Example 4, 5-[[(2,4-Dimethoxyphenyl)amino][hexyl(2-quinolinylmethyl)amino]methylene]-2,2-dimethyl-1,3-dioxane-4,6-dione] was tested, and the “% Inhib, (Concentration - µM)” value [2] was 72 (25) % and the IC50 [2] was 5.16 µM.
`CCCCCC(C)N(Cc1ccc2ccccc2n1)C(Nc1ccc(OC)cc1OC)=C1C(=O)OC(C)(C)OC1=O` (centres unmarked) [Example 5] was tested, and the “% Inhib, (Concentration - µM)” value [2] was 90 (25) % and the IC50 [2] was 2.42 µM.
In the case of `CCCCCC(C)N(Cc1ccc2ccccc2n1)C(Nc1cc(C(C)(C)C)c(O)c(C(C)(C)C)c1)=C1C(=O)OC(C)(C)OC1=O` (centres unmarked) [Example 6], the “% Inhib, (Concentration - µM)” value [2] is reported as 95 (25) % and the IC50 [2] is reported as 1.55 µM.
`CCCCCC(C)N(Cc1ccnc2ccccc12)C(Nc1ccc(OC)cc1OC)=C1C(=O)OC(C)(C)OC1=O` (centres unmarked) [Example 7, 5-[[(2,4-Dimethoxyphenyl)amino][(1-methylhexyl)(4-quinolinylmethyl)amino]methylene]-2,2-dimethyl-1,3-dioxane-4,6-dione] was tested, and the “% Inhib, (Concentration - µM)” value [2] was 51 (25) % and the IC50 [2] was 9.41 µM.
In the case of `CCCCCC(C)N(Cc1ccnc2ccccc12)C(Nc1cc(C(C)(C)C)c(O)c(C(C)(C)C)c1)=C1C(=O)OC(C)(C)OC1=O` (centres unmarked) [Example 8, 5-[[[3,5-Bis(1,1-dimethylethyl)-4-hydroxyphenyl]amino][(1-methylhexyl)(4-quinolinylmethyl)amino]methylene]-2,2-dimethyl-1,3-dioxane-4,6-dione], the “% Inhib, (Concentration - µM)” value [2] is reported as 97 (25) % and the IC50 [2] is reported as 1.65 µM.
In the case of `CCCCCCN(Cc1cnc2ccccc2c1)C(Nc1cc(C(C)(C)C)c(O)c(C(C)(C)C)c1)=C1C(=O)OC(C)(C)OC1=O` [Example 9, 5-[[[3,5-Bis(1,1-dimethylethyl)-4-hydroxyphenyl]amino][hexyl(3-quinolinylmethyl)amino]methylene]-2,2-dimethyl-1,3-dioxane-4,6-dione], the “% Inhib, (Concentration - µM)” value [2] is reported as 98 (25) % and the IC50 [2] is reported as 1.35 µM.
`CCCCCCN(Cc1ccncc1)C(Nc1cc(C(C)(C)C)c(O)c(C(C)(C)C)c1)=C1C(=O)OC(C)(C)OC1=O` [Example 10, 5-[(3,5-Di-tert-butyl-4-hydroxy-phenylamino)-(hexyl-(pyridin-4-ylmethyl)-amino)-methylene]-2,2-dimethyl-1,3-dioxane-4,6-dione] was tested, and the “% Inhib, (Concentration - µM)” value [2] was 94 (25) % and the IC50 [2] was 5.82 µM.
With `CCCCCCN(Cc1ccncc1)C(Nc1ccc(OC)cc1OC)=C1C(=O)OC(C)(C)OC1=O` [Example 11] the “% Inhib, (Concentration - µM)” value [2] was 24 (25) %.
For `CCCCCCN(Cc1ccccn1)C(Nc1cc(C(C)(C)C)c(O)c(C(C)(C)C)c1)=C1C(=O)OC(C)(C)OC1=O` [Example 12, 5-[(3,5-Di-tert-butyl-4-hydroxy-phenylamino)-(hexyl-(pyridin-2-ylmethyl)-amino]-methylene]-2,2-dimethyl-[1,3]-dioxane-4,6-dione], the “% Inhibition of Absorption” value ([1]; dose 10 mg/kg) was 65%, the “% Inhib, (Concentration - µM)” value [2] was 92 (25) % and the IC50 [2] was 4.11 µM.
For `CCCCCCN(Cc1ccccn1)C(Nc1ccc(OC)cc1OC)=C1C(=O)OC(C)(C)OC1=O` [Example 13, 5-[(2,4-Dimethoxyphenylamino)-[hexyl-(pyridin-2-ylmethyl)-amino]-methylene]-2,2-dimethyl-[1,3]-dioxane-4,6-dione], the “% Inhib, (Concentration - µM)” value [2] was 26 (25) %.
In the case of `CCCCCCN(Cc1cccnc1)C(Nc1ccc(OC)cc1OC)=C1C(=O)OC(C)(C)OC1=O` [Example 14, 5-[(2,4-Dimethoxy-phenylamino)-[hexyl-(pyridin-3-ylmethyl)-amino]-methylene]-2,2-dimethyl-[1,3]-dioxane-4,6-dione], the “% Inhib, (Concentration - µM)” value [2] is reported as 18 (25) %.
With `CCCCCCN(Cc1cccnc1)C(Nc1cc(C(C)(C)C)c(O)c(C(C)(C)C)c1)=C1C(=O)OC(C)(C)OC1=O` [Example 15, 5-[(3,5-Di-tert-butyl-4-hydroxy-phenylamino)-[hexyl-(pyridin-3-ylmethyl)-amino]-methylene]-2,2-dimethyl-1,3-dioxane-4,6-dione] the “% Inhibition of Absorption” value ([1]; dose 3 mg/kg) was 48%, the “% Inhib, (Concentration - µM)” value [2] was 97 (25) % and the IC50 [2] was 3.9 µM.
In the case of `CCCCCCCN(Cc1ccc(CC(C)(C)C)s1)C(Nc1ccc(OC)cc1OC)=C1C(=O)OC(C)(C)OC1=O` [Example 16, 5-[[(2,4-Dimethoxyphenyl)amino][[[5-(2,2-dimethylpropyl)-2-thienyl]methyl]heptylamino]-methylene]-2,2-dimethyl-1,3-dioxane-4,6-], the “% Inhib, (Concentration - µM)” value [2] is reported as 94 (25) % and the IC50 [2] is reported as 2.96 µM.
`CCCCCCCN(Cc1ccc(CC(C)(C)C)s1)C(Nc1cc(C(C)(C)C)c(O)c(C(C)(C)C)c1)=C1C(=O)OC(C)(C)OC1=O` [Example 17, 5-[[[3,5-Bis(1,1-dimethylethyl)-4-hydroxyphenyl]amino][[[5-(2,2-dimethylpropyl)-2-thienyl]methyl]heptylamino]methylene]-2,2-dimethyl-1,3-dioxane-4,6-dione] was tested, and the IC50 [2] was 0.7 µM.
`CCCCCC(C)N(Cc1ccc(CC(C)(C)C)s1)C(Nc1ccc(OC)cc1OC)=C1C(=O)OC(C)(C)OC1=O` (centres unmarked) [Example 18, 5-[[(2,4-Dimethoxyphenyl)amino][[[5-(2,2-dimethylpropyl)-2-thienyl]methyl](1-methylhexyl)-amino]methylene]-2,2-dimethyl-1,3-dioxane-4,6-dione] was tested, and the “% Inhib, (Concentration - µM)” value [2] was 97 (25) %.
`CCCCCCC(C)N(Cc1ccc(CC(C)(C)C)s1)C(Nc1cc(C(C)(C)C)c(O)c(C(C)(C)C)c1)=C1C(=O)OC(C)(C)OC1=O` (centres unmarked) [Example 19, 5-[[[3,5-Bis(1,1-dimethylethyl)-4-hydroxyphenyl]amino][[[5-(2,2-dimethylpropyl)-2-thienyl]methyl](1-methylheptyl)amino]methylene]-2,2-dimethyl-1,3-dioxane-4,6-dione] gave an IC50 [2] of 0.64 µM.
For `COc1ccc(NC(NC(c2ccc(CC(C)(C)C)s2)C2CCCCC2)=C2C(=O)OC(C)(C)OC2=O)c(OC)c1` (centres unmarked) [Example 20, 5-[[[Cyclohexyl-[5-(2,2-dimethylpropyl)-2-thienyl]methyl]amino]-[(2,4-dimethoxyphenyl)amino]-methylene]-2,2-dimethyl-1,3-dioxane-4,6-dione], the “% Inhib, (Concentration - µM)” value [2] was 95 (25) %.
`CCCCCCN(Cc1csc2ccccc12)C(Nc1cc(C(C)(C)C)c(O)c(C(C)(C)C)c1)=C1C(=O)OC(C)(C)OC1=O` [Example 21, 5-[(Benzo[b]thiophen-3-ylmethyl-hexyl-amino)-(3,5-di-tert-butyl-4-hydroxy-phenylamino)-methylene]-2,2-dimethyl-[1,3]dioxane-4,6-dione] was tested, and the “% Inhib, (Concentration - µM)” value [2] was 98 (25) % and the IC50 [2] was 0.38 µM.
In the case of `CCCCCCN(Cc1cc2ccccc2s1)C(Nc1ccc(OC)cc1OC)=C1C(=O)OC(C)(C)OC1=O` [Example 22, 5-[[(Benzo[b]thiophen-2-ylmethyl)-hexyl-amino]-(2,4-dimethoxyphenylamino)-methylene]-2,2-dimethyl-[1,3]dioxane-4,6-], the “% Inhib, (Concentration - µM)” value [2] is reported as 94 (25) % and the IC50 [2] is reported as 0.62 µM.
In the case of `CCCCCC(C)N(Cc1cc2ccccc2s1)C(Nc1ccc(OC)cc1OC)=C1C(=O)OC(C)(C)OC1=O` (centres unmarked) [Example 23, 5-[[Benzo[b]thiophen-2-ylmethyl-(1-methyl-hexyl)-amino]-(2,4-dimethoxy-phenylamino)-methylene]-2,2-dimethyl-[1,3]dioxane-4,6-dione], the “% Inhib, (Concentration - µM)” value [2] is reported as 97 (25) % and the IC50 [2] is reported as 0.35 µM.
`CCCCCC(C)N(Cc1cc2ccccc2s1)C(Nc1cc(C(C)(C)C)c(O)c(C(C)(C)C)c1)=C1C(=O)OC(C)(C)OC1=O` (centres unmarked) [Example 24, 5-[[Benzo[b]thiophen-2-ylmethyl-(1-methyl-hexyl)-amino]-(3,5-di-tert-butyl-4-hydroxy-phenylamino)methylene]-2,2-dimethyl-[1,3]dioxane-4,6-dione] was tested, and the “% Inhib, (Concentration - µM)” value [2] was 98 (25) % and the IC50 [2] was 0.31 µM.
